Here are results for 4 compounds from patent US6855536B2, “Materials and methods for the enhancement of effective root nodulation in legumes” (priority 2000, dated 2005).

SMILES strings stand for the structures. Entries after “also recorded” stand apart in the source; their conditions may differ.

One test relates to nolA-lacZ fusion. The test can be described thus: nolA-lacZ (nolA1,2,3-lacZ) fusion β-galactosidase assay in B. japonicum. Type of test: cell-based, Bradyrhizobium japonicum. Particulars: for Induction of nolA expression (in words): B. japonicum harboring nolA-lacZ fusion. On the procedure: (§1) Bacterial Stains, plasmids and culture conditions. For routine bacterial growth, B. japonicum cells were maintained on RDY medium (So, J. -S. et al. [1987] Mol. Gen. Genet. 207:15-23). Bacteria were grown in minimal medium (Bergensen, F. J. [1961] Aust. J. Biol. Sci. 14:349-360) for β-galactosidase activity. As required, antibiotics were used at the following concentrations, Cm (30 μg/ml), Sm (100 μg/ml), Sp (100 μg/ml), Tc (100 μg/ml). The B. japonicum strains used in this study were Bj110-42, BJAlac12, BJAlac23, BJAlac13 and BJ110-1248-1, ZB977, SL101 and Bj110-573. These strains harbored the following translational fusions; BJ110-1248-1 (nodD2-lacZ, plasmid pRJ1248, Dockendorff et al. [1994] Mol. Plant-Microbe Interact. 7:596-602), ZB977 (nodY-lacZ, plasmid pZB32, Banfalvi et al. [1988] Mol. Gen. Genet. 214:420-424), SL101 (npt-lacZ, Yuen, J. P.-Y and G. Stacey [1996] Mol. Plant-Microbe Interact. 9:424-428), and Bj110-573 (nodC-lacZ, chromosomally integrated fusion, Dockendorff et al. [1994] Mol. Plant-Microbe Interact 7:596-602). Strains Bj110-42, BJAlac23, BJAlac12, BJAlac13 harbored nolA-lacZ translational fusions encoded on plasmids pBGALac1, pNMAlac23, pNMAlac13, pNMAlac12 respectively (Garcia et al. [1996] Mol. Plant-Microbe Interact. 9:625-635; Loh et al. [1999] J. Bacteriol. 181:1544-1554). Plasmid pNMAlac23 contained mutations to ATG2 and ATG3 of nolA and allowed the specific expression of NolA1-lacZ. In contrast, plasmids pNMAlac13 (mutations to ATG1 and ATG3) and pNMAlac12 (mutation to ATG1 and ATG3, Loh et al. [1999] J. Bacteriol. 181:1544-1554) only expressed NolA2-lacZ and NolA3-lacZ, respectively.
Typically, B. japonicum cells are found in high population density in commercial inoculants. To determine if the bacterial nolA inducer was present in commercial inoculant, three soybean inoculants from two commercially available sources were extracted with butanol, and these extracts analyzed for their ability to induce the nolA-lacZ fusions.
As shown in Tables 2-3 and FIG. 11C, an inducer of nolA-lacZ and nodD2-lacZ expression was detected in conditioned medium from B. japonicum cultures grown to a high population density. […] The nolA inducer present in the conditioned medium was lost after dialysis using a membrane with a cutoff at 3 kDa (Fisher Scientific, Pittsburgh, Pa.).

A further test deals with CDF production. The test can be described thus: CDF production in B. japonicum cultures grown with iron. In kind it is cell-based, Bradyrhizobium japonicum. Conditions: Fe^3+ added to B. japonicum cultures.
The test system of the next test is nodY-lacZ. The experiment in a line: nodY-lacZ fusion induction by genistein in B. japonicum. Conditions: for Effect on nodY-lacZ expression: 0.025 μM genistein for five hours, with or without 500 μM FeCl3. Type of test: cell-based, Bradyrhizobium japonicum. On the procedure:
as §1
This view is supported experimentally by the following two results.
The levels of nod gene expression were also found to be affected by IND-1.

The test system of test [1] is nodule occupancy by the NwsB mutant. The experiment in a line: Nodule occupancy competition assay, NwsB mutant versus wild-type. Type of test: in vivo, Glycine max. Particulars: 25 μM BEHP; NwsB mutant and USDA110 at different ratios; 21 days post inoculation. On the procedure:
Different ratios of B. japonicum USDA110 and B. japonicum NwsB mutant were innoculated on soybean plants grown in growth pouches. At the time of innoculation, the root tip (RT) mark was noted on the outside of the pouches. Nodules were extracted 21 days post innoculation and the extracts were plated on RDY plates. Single colonies were picked and tested for streptomycin resistance (a marker for the NwsB mutant). (A) is above RT at time of innoculation; (B) below RT at time of innoculation.
We have generated, by recombinant means, mutations in the nwsB gene. The NwsB mutant appears to be defective in the recognition of the quorum signal and we have performed plant tests with the mutant in competition assays with the wild-type bacteria. In these assays, the effect of IND-1 (BEHP) on the ability of the NwsB mutant to nodulate soybean in the presence of wild-type bacteria (at different cell ratios) was examined. […] Nodule occupancy was scored both above (treated area) and below (new root growth) the root tip mark at the time of inoculation. […] These studies were conducted using 25 μM levels of BEHP.

Test [2] deals with nodulation of soybean by B. japonicum. The experiment in a line: Soybean nodulation plant test in growth pouches. Type of test: in vivo, Glycine max. Particulars: for Effect on nodulation of soybean (in words): B. japonicum cells pretreated 1 h, 10^7 cells per root, nodules counted 21 days post-inoculation. On the procedure:
The significance of nod gene repression by both IND-1 and the quorum factor was also investigated in plant tests. Seeds of Glycine maxcv Essex were surface sterilized, placed in sterile growth pouches (Mega International, MN) and cultivated as described by Nieuwkoop et al. (Nieuwkoop et al. [1987] J. Bacteriol. 169:2631-2638). Each seedling was inoculated with 10^7 B. japonicum cells. Prior to inoculation of the roots, B. japonicum cells were incubated for 1 h with concentrated, conditioned medium that had been sterilized by filtration through a […] filter (Millipore, Bedford, Mass.). The conditioned medium was used at a final concentration of 10 μl per 1 ml of culture. At the time of inoculation, the location of the root tip was marked on the outside of the plastic growth pouch. Plants were watered with nitrogen free nutrient solution (Wacek and Brill [1976] Crop Sci. 15:519-523). At 21 days post-inoculation, the number of nodules on each root both above and below the root tip mark was recorded.

The test system of a further test is NolA1-lacZ. The experiment in a line: NolA1-lacZ fusion β-galactosidase assay in B. japonicum. Particulars: NolA3-lacZ fusions compared. Type of test: cell-based, Bradyrhizobium japonicum. On the procedure: as §1, with “Strains Bj110-42, BJAlac23, BJAlac12, BJAlac13 harbored nolA-lacZ translational fusions encoded on plasmids pBGALac1, pNMAlac23, pNMAlac13, pNMAlac12 respectively (Garcia et al. [1996] Mol. Plant-Microbe Interact. 9:625-635; Loh et al. [1999] J. Bacteriol. 181:1544-1554). Plasmid pNMAlac23 contained mutations to ATG2 and ATG3 of nolA and allowed the specific expression of NolA1-lacZ. In contrast, plasmids pNMAlac13 (mutations to ATG1 and ATG3) and pNMAlac12 (mutation to ATG1 and ATG3, Loh et al. [1999] J. Bacteriol. 181:1544-1554) only expressed NolA2-lacZ and NolA3-lacZ, respectively.” left out
As shown in Tables 2-3 and FIG. 11C, an inducer of nolA-lacZ and nodD2-lacZ expression was detected in conditioned medium from B. japonicum cultures grown to a high population density. […]

The subject of the next test is nodC-lacZ. The test can be described thus: nodC-lacZ fusion induction by genistein in B. japonicum Bj110-573. In kind it is cell-based, Bradyrhizobium japonicum. Conditions: 0.025 μM genistein, 5 hours; cells harvested at high population densities (A600=1.62 or 3.22). On the procedure: as §1, with “Plasmid pNMAlac23 contained mutations to ATG2 and ATG3 of nolA and allowed the specific expression of NolA1-lacZ. In contrast, plasmids pNMAlac13 (mutations to ATG1 and ATG3) and pNMAlac12 (mutation to ATG1 and ATG3, Loh et al. [1999] J. Bacteriol. 181:1544-1554) only expressed NolA2-lacZ and NolA3-lacZ, respectively.” left out

The mark [3] stands for this setting: listed as phthalic acid bis-(2-ethyl-hexyl) ester.

On to `[Cl][Fe]([Cl])[Cl]` [Fe^3+, FeCl3], for which the “Effect on nolA expression at high culture densities” value with nolA-lacZ fusion (increasing concentrations of FeCl3 for five hours) is listed as “significantly reduced the expression of nolA expression”. Besides, in the test with CDF production, the “Effect on CDF production” value was “inhibit CDF production”. For the same compound, the “Effect on nodY-lacZ expression” value in the test with nodY-lacZ is on record as “corresponding increase in nodY-lacZ expression”; with nodY-lacZ (listed as FeCl3), “increase in the expression of a nodY-lacZ fusion protein”.
As for `CCCCC(CC)COC(=O)c1ccccc1C(=O)OCC(CC)CCCC` (stereo not shown) [IND-1, phthalic acid bis-(2-ethyl-hexyl) ester], the “Induction of nolA expression (in words)” value is given as “active on B. japonicum nolA-lacZ fusions; also recorded: capable of inducing nolA” in the test with nolA-lacZ fusion and “potent inducer of nolA; also recorded: strong inducer of NolA expression” in the test with nolA-lacZ fusion (setting [3]). Besides, in test [1], the “Percentage of nodules occupied by the NwsB mutant” value is “increase the percentage of nodules that were occupied by the NwsB mutant”. The figures for the “Effect on nodulation of soybean (in words)” value in test [2] and in test [2] (setting [3]) were “reduced nodulation efficiency” and “inhibits nodulation”, respectively. For the same compound, in test [2] (UV treated USDA61 A2 73 cells inoculated onto soybean roots), the “Nodule phenotype in the presence of BEHP” value is “delayed nodule phenotype”. Also, the “Effect on nod gene (nodY-lacZ) induction by genistein (in words)” value in the test with nodY-lacZ (B. japonicum at low population density, IND-1 in USDA110, USDA76, USDA31) is recorded as “reduced nodY-lacZ induction by genistein”. For the same compound, the “Which NolA form is affected (NolA1, NolA2, NolA3)” value in the test on NolA1-lacZ is reported as “affect only NolA1 expression”.
As to `O=c1c(-c2ccc(O)cc2)coc2cc(O)ccc12` [daidzein, reference compound], the “Induction of nolA expression (in words)” value in the test on nolA-lacZ fusion is on record as “failed to induced nolA expression”.
With `O=c1c(-c2ccc(O)cc2)coc2cc(O)cc(O)c12` [genistein, reference compound], the “Induction of nolA expression (in words)” value in the test with nolA-lacZ fusion was “failed to induced nolA expression”. Also, the “nodC-lacZ induction by genistein” value in the test with nodC-lacZ is listed as “Little or no nodC induction”. Further, the “Induction of nodY-lacZ, β-galactosidase activity” value with nodY-lacZ (0.05 μM genistein for 5 h, with or without CM (A600 = 1.0), CPRG substrate, mean of two ± SD) came to 366 ± 11 U.
